# Experimental data: PMC9888311, “Neonatal NET-Inhibitory Factor improves survival in the cecal ligation and puncture model of polymicrobial sepsis by inhibiting neutrophil extracellular traps” (Frontiers in Immunology, 2023)
# Where no end group is shown, it is not given here.
# How the values were obtained:
# Type in all cases: in vivo, mouse (outbred Swiss Webster)
# [1] = system: neutrophil extracellular traps (NETs), plasma; experiment: Plasma NET formation (MPO-DNA complex ELISA); details: 24 hours after CLP; for plasma MPO-DNA complexes compared to other CLP treatment groups: nNIF 1 mg/kg IV or meropenem 25 mg/kg IP at 4 and 10 hours after CLP, N=3-5 per group, two experiments
# Protocol: An in-house ELISA was used to quantify MPO-DNA complexes in plasma and peritoneal fluid from sham and CLP mice 24 hours after the surgical procedure ([24], [27]). Briefly, after overnight coating with anti-MPO capture antibody in calcium carbonate coating buffer (2 µg/ml; 0400-0002, Bio-Rad) at 4°C, a 96-well plate was blocked with 2.5% bovine serum albumin in PBS for 2 hours at room temperature. The plate was subsequently washed, before incubating for 90 minutes at room temperature with 10% peritoneal fluid in blocking buffer. The plate was washed five times, and then incubated for 90 minutes at room temperature with anti-DNA detection antibody (1:20; Cell Death detection ELISA, 11544675001, Sigma). After five washes, the plate was developed with TMB substrate solution (Sigma).
# [2] = system: CLP model of polymicrobial sepsis; experiment: Survival over 6 days after cecal ligation and puncture (CLP)
# Protocol: Mice were anesthetized with 3% isoflurane in an induction chamber, and anesthesia was maintained by use of inhalation via nose cone. Sepsis was induced by cecal ligation and puncture (CLP) as previously described ([30], [31]). […] The animals received subcutaneous sterile isotonic saline (0.5 mL) for fluid resuscitation immediately after surgery. Sham-operated mice were subjected to identical procedures, except that ligation and puncture of the cecum was omitted. Survival of mice subjected to CLP or sham injury was determined daily for 6 days. Twenty-four and 48 hours after CLP, all animals were scored for clinical illness severity as previously described ([32]) by an examiner blinded to treatment arm. In this assessment, higher scores reflect increased illness severity with non-surviving mice receiving a score of 10. These mice were included in the statistical analysis. In additional experiments, mature Swiss-webster mice were treated with sham surgery or CLP procedure. […]
# For our survival studies, animals were randomly assigned to one of five groups: (a) sham-operated group (Sham); (b) DMSO vehicle treatment group (CLP + DMSO (0.003%/5% Dextrose/H2O, IV); (c) nNIF treatment group ([…], 0.003%/5% Dextrose/H2O, IV); (d) scrambled peptide control treatment group (CLP + nNIF-SCR, 1 mg/kg, 0.003%/5% Dextrose/H2O, IV); and (e) antibiotic treatment group ([…]). Groups a-d received their respective treatment at 4 and 10 hours after CLP. Group e received two doses of meropenem at 4 and 10 hours after CLP and then daily injections for 6 days. In another set of survival studies, mice were treated with nNIF or nNIF-SCR (1 mg/kg, IV) 4 and 10 hours after CLP in combination therapy with a suboptimal dose of meropenem (8 mg/kg, IP) also given 4 and 10 hours after CLP and then once daily. […] Both aliquots of blood and peritoneal fluid were used for the following analyses: leukocyte cell count and differential, bacterial CFU studies, NET quantitation using MPO-DNA complex ELISA, live cell imaging, and multiplex cytokine profiling with specific ELISA confirmation.
# [3] = system: aerobic bacteria in whole blood; experiment: Whole blood aerobic bacterial colony forming units; details: for peripheral blood bacterial CFUs at 24 hours: 24 hours after CLP, nNIF 1 mg/kg or meropenem 25 mg/kg at 4 and 10 hours, serial dilution, LB-agar, 37°C 24 hours, N=5-8
# Protocol: Peritoneal fluid cytokines were analyzed using a mouse Cytokine/Chemokine Panel I Multiplex Array (Millipore Sigma catalog# HCYTMAG60-PMX41) according to manufacturer’s instructions on a Luminex 200 instrument. […] Briefly, peritoneal fluid and blood samples were collected, serially diluted, plated on LB-agar dishes, and incubated at 37°C for 24 hours. The number of bacterial colonies was counted and expressed as CFU/mL.
# neutrophil CD11b = experiment: Peritoneal fluid neutrophil CD11b expression (flow cytometry); details: 24 hours after CLP; nNIF 1 mg/kg or meropenem 25 mg/kg at 4 and 10 hours; compared to scrambled peptide control-treated CLP mice
# Protocol: Twenty-four hours after CLP or sham surgery, total white blood cell and differential neutrophil counts were determined both in whole blood samples collected from orbital vein using heparinized capillaries tubes and peritoneal fluid by washing with 3 mL of PBS, respectively. Then, samples were incubated with CD45 APC-Cy7 (Biolegend), CD11b PE-Cy7 (EBioscience), Ly6G BV510 (Biolegend), and CD16/CD32 (Fc-block, EBioscience) for 30 minutes at 37 °C. Thirty minutes later, cells were washed, fixed, and ran on a Beckman Coulter Cytoflex located in the University of Utah Flow Cytometry Core.
# [4] = system: aerobic bacteria in peritoneal fluid; experiment: Peritoneal fluid aerobic bacterial colony forming units; details: 24 hours after CLP; nNIF 1 mg/kg or meropenem 25 mg/kg at 4 and 10 hours; serial dilution, LB-agar, 37°C 24 hours; N=5-8
# Protocol: Peritoneal fluid cytokines were analyzed using a mouse Cytokine/Chemokine Panel I Multiplex Array (Millipore Sigma catalog# HCYTMAG60-PMX41) according to manufacturer’s instructions on a Luminex 200 instrument. Bacterial counts in whole blood and peritoneal lavage were determined 24 hours after CLP. Briefly, peritoneal fluid and blood samples were collected, serially diluted, plated on LB-agar dishes, and incubated at 37°C for 24 hours. The number of bacterial colonies was counted and expressed as CFU/mL.
compound,measurement,setting,value
"KFNKPFVFLMIEQNTKSPLFMGKVVNPTQ-OH [nNIF, neonatal NET-Inhibitory Factor]",plasma MPO-DNA complexes compared to other CLP treatment groups,[1],significant reduction in MPO-DNA complexes
same,6-day survival,"[2]; nNIF 0.1 mg/kg IV, 2 doses at 4 and 10 hours after CLP, N=10, vehicle (DMSO) control 0%",30%
same,6-day survival,"[2]; nNIF 0.5 mg/kg IV, 2 doses at 4 and 10 hours after CLP, N=10, vehicle (DMSO) control 0%",70%
same,peripheral blood bacterial CFUs at 24 hours,[3],higher CFUs
same,whole blood bacterial CFUs at 96 hours,"[3]; 96 hours after CLP, nNIF 1 mg/kg, elevated at 24 hours, meropenem comparator 8 mg/kg, N=3-4",returned to meropenem alone treatment levels
same,neutrophil CD11b expression in peritoneal fluid,neutrophil CD11b,significantly decreased neutrophil CD11b expression
same,peritoneal fluid bacterial CFUs at 24 hours,[4],higher CFUs
"C[C@@H](O)[C@H]1C(=O)N2C(C(=O)O)=C(S[C@@H]3CN[C@H](C(=O)N(C)C)C3)[C@H](C)[C@H]12 [meropenem, reference compound]",plasma MPO-DNA complexes compared to other CLP treatment groups,[1],equivalent between the vehicle and meropenem arms
same,plasma MPO-DNA complexes compared to the sham surgery group,[1]; nNIF-SCR 1 mg/kg IV or meropenem 25 mg/kg IP at 4 and 10 hours after CLP,significantly increased MPO-DNA complexes
same,6-day survival,[2]; sub-optimal meropenem 8 mg/kg IP at 4 and 10 hours after CLP then once daily,40%
same,peripheral blood bacterial CFUs at 24 hours,[3],statistically significant decrease
same,neutrophil CD11b expression in peritoneal fluid,neutrophil CD11b,no decrease
same,peritoneal fluid bacterial CFUs at 24 hours,[4],statistically significant decrease
